Test results reported in patent US9072741B2, “Methods of treating liver fibrosis and pre-cirrhosis with epidermal growth factor receptor inhibitors” (The General Hospital Corporation, priority 2009, dated 2015).

What was measured:
[1] = tested on: DEN-induced cirrhosis and HCC; assay: DEN-induced rat model of cirrhosis and HCC: tumor formation (tumor nodules) and gross liver appearance; assay type: in vivo, male Wistar rats; settings: for decrease of tumor formation: vs vehicle
Protocol: FIG. 1A is a bar graph depicting the number of tumor nodules in male Wistar rats receiving weekly intraperitoneal injections of 50 mg/kg diethylnitrosamine (DEN) for 18 weeks and vehicle only (n=16), 0.5 mg/kg erlotinib (Erl 0.5; n=8), or 2 mg/kg erlotinib (Erl 2; n=8) during weeks 12-18.
FIG. 5A is a bar graph depicting the number of tumor nodules in male Wistar rats receiving weekly intraperitoneal injections of 50 mg/kg DEN for 18 weeks and vehicle only (n=8) or 18 mg/kg lapatinib (n=8) during weeks 12-18. *, significant.
Given the lack of successful treatment options for HCC, chemoprevention in high-risk patients has been proposed as an alternative strategy (Llovet et al., Lancet 362:1907-17, 2003). Even though EGFR inhibition is not effective for chemotherapy, the data presented herein indicate that it is likely to be a good chemoprevention strategy. The diethylnitrosamine (DEN)-induced rat model of sequential cirrhosis and HCC has emerged as a promising tool for not only studying the course of chronic liver disease but also for testing putative chemopreventive agents as it better resembles disease progression in humans (Lee et al., Korean J Hepatol 13:70-80, 2007; Schiffer et al., Hepatology 41:307-14, 2005). In this model, DEN induces liver cirrhosis after 12 weeks and HCC at approximately 18 weeks allowing ample opportunity for preventative intervention.
Erlotinib is a drug used to treat non-small cell lung cancer and pancreatic cancer. Erlotinib specifically targets the EGFR, which is highly expressed and occasionally mutated in various forms of cancer, by binding to the adenosine triphosphate (ATP) binding site of the receptor (Raymond et al., Drugs 60 Suppl 1:15-23, 2000). To investigate erlotinib as a chemoprevention strategy for liver fibrogenesis, male Wistar rats were given a weekly intraperitoneal injection of 50 mg/kg DEN to induce cirrhosis and HCC (Lee et al., Korean J Hepatol 13:70-80, 2007). Erlotinib was administered by intraperitoneal injection daily (5× a week) during weeks 12-18 at a dose of 2 mg/kg, which is equivalent to chemotherapeutic dosing regimens in humans. […] In a separate study, the dose of erlotinib was lowered to 0.5 mg/kg.
Repeated injury to the liver causes damage to hepatocytes and activates resident macrophages called Kupffer cells. Damaged hepatocytes and activated Kupffer cells secrete cytokines and growth factors into the liver milieu, which activate hepatic stellate cells (Friedman, Gastroenterology 134:1655-69, 2008). Normally, hepatic stellate cells are quiescent and store vitamin A and fat. Upon activation, they differentiate into a myofibroblast-phenotype and express α-smooth muscle actin (α-SMA) (Friedman, Gastroenterology 134:1655-69, 2008). Activated hepatic stellate cells deposit fibrous collagen into the space of Disse acutely causing fibrosis and chronically causing cirrhosis. The degree of liver disease (fibrosis versus cirrhosis) is pathologically assessed through trichrome staining of collagen by the method of Ishak (Mod Pathol 7:690-713, 1994).
To investigate lapatinib as a chemoprevention strategy for liver fibrogenesis, male Wistar rats were given a weekly intraperitoneal injection of 50 mg/kg DEN to induce cirrhosis and HCC (Lee et al., Korean J Hepatol 13:70-80, 2007). Lapatinib was administered by intraperitoneal injection daily (5× a week) during weeks 12-18 at a dose of 18 mg/kg.

[2] = tested on: DEN-induced hepatotoxicity and liver failure; assay: Liver function tests on serum (AST, TBIL, Glu) of DEN-treated rats; assay type: in vivo, male Wistar rats; settings: n=4
Protocol: FIGS. 4A, 4B, and 4C are a series of three bar graphs showing the levels of (A) aspartate transaminase (AST), (B) total bilirubin (TBIL), and (C) total glucose (Glu) in serum from rats treated with PBS for 18 weeks or DEN (50 mg/kg) for 18 weeks plus either vehicle, 0.5 mg/kg erlotinib (Erl 0.5), or 2 mg/kg erlotinib (Erl 2) during weeks 12-18. *, significant.
FIGS. 7A, 7B, and 7C are a series of three bar graphs showing levels of (A) aspartate transaminase (AST), (B) total bilirubin (TBIL), and (C) total glucose (Glu) in serum from rats treated with DEN (50 mg/kg) for 18 weeks plus either vehicle or 18 mg/kg lapatinib during weeks 12-18. *, significant.
During fibrosis, hepatic stellate cells are activated and deposit fibrous collagen into the space of Disse, the area between the hepatocytes and the sinusoid containing blood plasma. The deposition of collagen inhibits the normal exchange of nutrients and wastes between the hepatocytes and plasma resulting in hepatotoxicity and liver failure. The degree of liver toxicity and failure can be assessed by measuring several proteins or a carbohydrate present in the serum. For example, aspartate aminotransferase (AST) is an enzyme present in hepatocytes that is released into the serum when hepatocytes die. Bilirubin (TBIL) is the breakdown product of heme and its levels become elevated in the serum if hepatocytes cannot properly metabolize it. Finally, liver failure will result in lower levels of glucose (Glu) production causing serum Glu levels to drop.
The levels of AST, TBIL, and Glu were assayed in serum from rats treated with erlotinib. Male Wistar rats (n=4) were treated with PBS for 18 weeks or a weekly intraperitoneal injection of 50 mg/kg DEN for 18 weeks plus either vehicle, 0.5 mg/kg erlotinib (Erl 0.5), or 2 mg/kg erlotinib (Erl 2) between weeks 12 and 18. Whole blood was isolated from the rats and allowed to clot for 2 hours at room temperature. The blood was then spun at 2,000 rpm for 10 minutes and serum (top layer) was isolated. Liver function tests were performed on serum from the rats. In the current model, intraperitoneal administration of DEN causes both hepatotoxicity and liver failure to increase over time as assessed by these three markers. However, compared to vehicle controls, erlotinib reduced the degree of hepatotoxicity and liver failure in a dose-dependent fashion. Specifically, erlotinib decreased serum levels of AST and TBIL and increased serum levels of Glu (FIGS. 4A-C).
Levels of AST, TBIL, and Glu were assayed in serum from rats treated with lapatinib. Male Wistar rats (n=4) were treated with PBS for 18 weeks or a weekly intraperitoneal injection of 50 mg/kg DEN for 18 weeks plus either vehicle or 18 mg/kg lapatinib between weeks 12 and 18. Whole blood was isolated from the rats and allowed to clot for 2 hours at room temperature. The blood was then spun at 2,000 rpm for 10 minutes and serum (top layer) was isolated. Liver function tests were performed on serum from the rats. In the current model, intraperitoneal administration of DEN causes both hepatotoxicity and liver failure to increase over time as assessed by these three markers. However, compared to vehicle controls, lapatinib reduced the degree of hepatotoxicity and liver failure. Specifically, lapatinib decreased serum levels of AST and TBIL and increased serum levels of Glu (FIGS. 7A-C).

[3] = 0.5 and 2 mg/kg weeks 12-18 vs vehicle, dose-dependent
[4] = 18 mg/kg weeks 12-18 vs vehicle

| Compound | inhibition of tumor formation ([1]; 0.5 mg/kg i.p. daily weeks 12-18, DEN 50 mg/kg weekly for 18 weeks, separate study) [%] | decrease of tumor formation ([1]; 2 mg/kg i.p. daily (5x a week) weeks 12-18, DEN 50 mg/kg weekly for 18 weeks) [%] | gross appearance of livers ([1]; 0.5 and 2 mg/kg weeks 12-18 (FIGS. 1C, 1D) vs vehicle) | serum level of AST [2, 3] | serum level of Glu [2, 3] | serum level of TBIL [2, 3] | decrease of tumor formation ([1]; 18 mg/kg i.p. daily (5x a week) weeks 12-18, DEN 50 mg/kg weekly for 18 weeks) | gross appearance of livers ([1]; 18 mg/kg weeks 12-18 (FIG. 5C) vs vehicle) | serum level of AST [2, 4] | serum level of Glu [2, 4] | serum level of TBIL [2, 4] |
| --- | --- | --- | --- | --- | --- | --- | --- | --- | --- | --- | --- |
| C#Cc1cccc(Nc2ncnc3cc(OCCOC)c(OCCOC)cc23)c1 [erlotinib, 4-Quinazolinamine, N-(3-ethynylphenyl)-6,7-bis(2-methoxyethoxy)] | 49 | 75 | not only exhibited less tumors, but also appeared less cirrhotic | decreased | increased | decreased | – | – | – | – | – |
| CS(=O)(=O)CCNCc1ccc(-c2ccc3ncnc(Nc4ccc(OCc5cccc(F)c5)c(Cl)c4)c3c2)o1 [lapatinib, 4-Quinazolinamine, N-(3-chloro-4-((3-fluorophenyl)methoxy)phenyl)-6-(5-(((2-(methylsulfonyl)ethyl)amino)methyl)-2-furanyl)] | – | – | – | – | – | – | greater than 50% | not only exhibited less tumors, but also appeared less cirrhotic | decreased | increased | decreased |
